The source of these data is PubChem BioAssay AID330 (DTP/NCI, 2004).

The structures appear in SMILES notation. Values joined by “and” are separate entries in the source; they are usually repeats but may differ in a detail not shown here. Equal values may be shown once. Inconclusive results and toxic doses are left out.

The subject of this assay is P388 leukemia ip, CD2F1 mice, survival T/C. Kind of assay: NCI In Vivo Anticancer Drug Screen. Data for tumor model P388 Leukemia (intraperitoneal) in CD2F1 (CDF1) mice. The settings on record: endpoint: median survival time, higher = longer survival. A digest of the protocol: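 Mice carrying the transplanted tumor received test compound or vehicle. Survival was recorded in each group, and the value is the treated-group measurement divided by that of the vehicle-treated control group.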

Setting [1] is: dose: 25.0 mg/kg/injection, schedule: Q01DX009 (ip), vehicle: Klucel (hydroxypropylcellulose) (HPC).
The mark [2] stands for this setting: dose: 50.0 mg/kg/injection, schedule: Q01DX009 (ip), vehicle: Klucel (hydroxypropylcellulose) (HPC).
The mark [3] stands for this setting: dose: 60.0 mg/kg/injection, schedule: Q01DX005 (ip), vehicle: saline with Tween-80.
The mark [4] stands for this setting: dose: 120.0 mg/kg/injection, schedule: Q01DX005 (ip), vehicle: saline with Tween-80.
Setting [5] is: dose: 50.0 mg/kg/injection, schedule: Q01DX009 (ip), vehicle: saline with Tween-80.
Where [6] appears, read: dose: 200.0 mg/kg/injection, schedule: Q01DX009 (ip), vehicle: saline with Tween-80.
Setting [7] is: dose: 12.5 mg/kg/injection, schedule: Q01DX005 (ip), vehicle: saline with Tween-80.
Setting [8] is: dose: 50.0 mg/kg/injection, schedule: Q01DX005 (ip), vehicle: saline with Tween-80.

On to `C[c-]1[c-][c-][c-][c-]1.[C-]#[O+].[C-]#[O+].[C-]#[O+].[Mn]`, for which the T/C by setting is: (dose: 12.5 mg/kg/injection, schedule: Q01DX005 (ip), vehicle: Klucel (hydroxypropylcellulose) (HPC)) 94 % of control; (dose: 25.0 mg/kg/injection, schedule: Q01DX005 (ip), vehicle: Klucel (hydroxypropylcellulose) (HPC)) 95 % of control; (dose: 50.0 mg/kg/injection, schedule: Q01DX005 (ip), vehicle: Klucel (hydroxypropylcellulose) (HPC)) 99 % of control; (dose: 100.0 mg/kg/injection, schedule: Q01DX005 (ip), vehicle: Klucel (hydroxypropylcellulose) (HPC)) 99 % of control.

Consider `Cc1cc(C)c(S(=O)(=O)OCC2OC(OC3(COS(=O)(=O)c4c(C)cc(C)cc4C)OC(COS(=O)(=O)c4c(C)cc(C)cc4C)C(O)C3O)C(O)C(O)C2O)c(C)c1` (configuration not stated), for which the T/C is 107 % of control under setting [1] and 99 % of control under setting [2].

On to `COc1cc2c(c(OC)c1OC)-c1ccc(=O)c(OC)cc1[C@@H](NC(=O)C(F)(F)F)CC2`, for which the T/C runs as follows: (dose: 2.5 mg/kg/injection, schedule: Q01DX009 (ip), vehicle: Klucel (hydroxypropylcellulose) (HPC)) 105 % of control; (dose: 5.0 mg/kg/injection, schedule: Q01DX009 (ip), vehicle: Klucel (hydroxypropylcellulose) (HPC)) 97 % of control; (dose: 10.0 mg/kg/injection, schedule: Q01DX009 (ip), vehicle: Klucel (hydroxypropylcellulose) (HPC)) 96 % of control; (dose: 20.0 mg/kg/injection, schedule: Q01DX009 (ip), vehicle: Klucel (hydroxypropylcellulose) (HPC)) 105 % of control; (dose: 40.0 mg/kg/injection, schedule: Q01DX009 (ip), vehicle: Klucel (hydroxypropylcellulose) (HPC)) 102 % of control.

For `CC(=O)OC1OC(CO)C(OCc2ccccc2)C(OCc2ccccc2)C1OC(C)=O` (configuration not stated), the T/C (dose: 4.0 mg/kg/injection, schedule: Q01DX009 (ip), vehicle: other) is 116 % of control; the T/C (dose: 8.0 mg/kg/injection, schedule: Q01DX009 (ip), vehicle: other) was 104 % of control; the T/C (dose: 16.0 mg/kg/injection, schedule: Q01DX009 (ip), vehicle: other) is 100 % of control; the T/C (dose: 32.0 mg/kg/injection, schedule: Q01DX009 (ip), vehicle: other) is 92 % of control; the T/C (dose: 50.0 mg/kg/injection, schedule: Q01DX009 (ip), vehicle: other) is 99 % of control; the T/C (dose: 64.0 mg/kg/injection, schedule: Q01DX009 (ip), vehicle: other) is 98 % of control. Further, the T/C is, setting by setting: (dose: 100.0 mg/kg/injection, schedule: Q01DX009 (ip), vehicle: other) 99 % of control; (dose: 200.0 mg/kg/injection, schedule: Q01DX009 (ip), vehicle: other) 99 % of control; (dose: 400.0 mg/kg/injection, schedule: Q01DX009 (ip), vehicle: other) 99 % of control.

As to `CC1CS(=O)(=O)O1` (configuration not stated), the T/C is 104 % of control (dose: 60.0 mg/kg/injection, schedule: Q01DX005 (ip), vehicle: Klucel (hydroxypropylcellulose) (HPC)); 103 % of control (dose: 120.0 mg/kg/injection, schedule: Q01DX005 (ip), vehicle: Klucel (hydroxypropylcellulose) (HPC)); 110 % of control (dose: 240.0 mg/kg/injection, schedule: Q01DX005 (ip), vehicle: Klucel (hydroxypropylcellulose) (HPC)).

In the case of `COc1ccc(OC)c2c(Cl)cc(N(C)C)nc12`, the T/C is, setting by setting: under setting [3], 99 % of control; under setting [4], 97 % of control.

As to `CSc1nc2ccc(NC(=O)CCC(=O)O)cc2s1`, the T/C reads like this: (dose: 6.25 mg/kg/injection, schedule: Q01DX009 (ip), vehicle: Klucel (hydroxypropylcellulose) (HPC)) 104 % of control; (dose: 12.5 mg/kg/injection, schedule: Q01DX009 (ip), vehicle: Klucel (hydroxypropylcellulose) (HPC)) 101 % of control; under setting [1], 107 % of control.

As to `CN1CCCC2Cc3ccccc3CC21` (configuration not stated), the T/C runs as follows: (dose: 6.25 mg/kg/injection, schedule: Q04DX002 (ip), vehicle: Klucel (hydroxypropylcellulose) (HPC)) 97 % of control; (dose: 12.5 mg/kg/injection, schedule: Q04DX002 (ip), vehicle: Klucel (hydroxypropylcellulose) (HPC)) 102 % of control; (dose: 25.0 mg/kg/injection, schedule: Q04DX002 (ip), vehicle: Klucel (hydroxypropylcellulose) (HPC)) 104 % of control; (dose: 100.0 mg/kg/injection, schedule: Q04DX002 (ip), vehicle: Klucel (hydroxypropylcellulose) (HPC)) 101 % of control.

Turning to `CC(=O)OC1=C2OC(=O)C3(C2C=CC=C1)C1C=CC=CC13` (configuration not stated), the T/C was 97 % of control under setting [5]; 97 % of control (dose: 100.0 mg/kg/injection, schedule: Q01DX009 (ip), vehicle: saline with Tween-80); 111 % of control under setting [6].

With `C1CNCOC1`, the T/C runs as follows: (dose: 50.0 mg/kg/injection, schedule: Q04DX003 (ip), vehicle: saline) 120 % of control; (dose: 100.0 mg/kg/injection, schedule: Q04DX003 (ip), vehicle: saline) 117 % of control; (dose: 200.0 mg/kg/injection, schedule: Q04DX003 (ip), vehicle: saline) 123 % of control.

On to `C[As+](C)(C)SCCO`, for which the T/C is, setting by setting: (dose: 100.0 mg/kg/injection, schedule: Q04DX002 (ip), vehicle: saline) 98 % of control; (dose: 200.0 mg/kg/injection, schedule: Q04DX002 (ip), vehicle: saline) 95 % of control; (dose: 400.0 mg/kg/injection, schedule: Q04DX002 (ip), vehicle: saline) 95 % of control.

On to `Cc1onc(-c2c(F)cccc2Cl)c1-c1ncc(-c2ccc(Cl)cc2)o1`, for which the T/C runs as follows: under setting [3], 98 % of control; under setting [4], 94 % of control; (dose: 240.0 mg/kg/injection, schedule: Q01DX005 (ip), vehicle: saline with Tween-80) 99 % of control.

Regarding `O=C(CCCSCCCl)Nc1c([N+](=O)[O-])cc([N+](=O)[O-])cc1S(=O)(=O)O`, the T/C was 110 % of control (dose: 3.13 mg/kg/injection, schedule: Q04DX003 (ip), vehicle: DMSO); 111 % of control (dose: 6.25 mg/kg/injection, schedule: Q04DX003 (ip), vehicle: DMSO); 118 % of control (dose: 50.0 mg/kg/injection, schedule: Q04DX003 (ip), vehicle: DMSO); 120 % of control (dose: 100.0 mg/kg/injection, schedule: Q04DX003 (ip), vehicle: olive oil, sesame oil, peanut oil); 114 % of control (dose: 150.0 mg/kg/injection, schedule: Q04DX003 (ip), vehicle: DMSO).

On to `CCCC[S][Sn]([CH2]CCC)([CH2]CCC)[S]CCCC`, for which the T/C (dose: 0.75 mg/kg/injection, schedule: Q01DX009 (ip), vehicle: saline with Tween-80) was 121 % of control and the T/C (dose: 3.0 mg/kg/injection, schedule: Q01DX009 (ip), vehicle: saline with Tween-80) was 152 % of control.

With `O=C1NC(=O)C(c2ccccc2)(c2ccccc2)N1S(=O)(=O)c1ccccc1`, the T/C runs as follows: under setting [2], 100 % of control; (dose: 100.0 mg/kg/injection, schedule: Q01DX009 (ip), vehicle: Klucel (hydroxypropylcellulose) (HPC)) 108 % of control; (dose: 200.0 mg/kg/injection, schedule: Q01DX009 (ip), vehicle: Klucel (hydroxypropylcellulose) (HPC)) 106 % of control.

With `CC(=O)NC1C(S[As](C)C)OC(COC(C)=O)C(OC(C)=O)C1OC(C)=O` (configuration not stated), the T/C reads like this: (dose: 12.5 mg/kg/injection, schedule: Q01DX009 (ip), vehicle: saline with Tween-80) 102 % of control; (dose: 25.0 mg/kg/injection, schedule: Q01DX009 (ip), vehicle: saline with Tween-80) 113 % of control; under setting [5], 116 % of control; under setting [6], 115 % of control.

Turning to `Cn1cccc1C(C=C(c1ccccc1)c1ccccc1)c1cccn1C`, the T/C under setting [7] was 113 % of control; the T/C (dose: 25.0 mg/kg/injection, schedule: Q01DX005 (ip), vehicle: saline with Tween-80) is 114 % of control; the T/C under setting [8] is 104 % of control and 88 % of control.

`CC(C)NC(=O)OCc1c(COC(=O)NC(C)C)c(-c2ccc(Cl)c(Cl)c2)n2c1CS(=O)(=O)C2`: the T/C is 101 % of control (dose: 6.25 mg/kg/injection, schedule: Q01DX005 (ip), vehicle: saline with Tween-80); 100 % of control and 87 % of control under setting [7]; 86 % of control under setting [8].

Take `CCOC(=O)C(C=O)(NC(=O)c1ccccc1)OCC` (configuration not stated): the T/C was 95 % of control (dose: 100.0 mg/kg/injection, schedule: Q04DX003 (ip), vehicle: saline with Tween-80); 90 % of control (dose: 200.0 mg/kg/injection, schedule: Q04DX003 (ip), vehicle: saline with Tween-80); 95 % of control (dose: 400.0 mg/kg/injection, schedule: Q04DX003 (ip), vehicle: saline with Tween-80).
